Experiments:
[1] = system: TLR9; assay: TLR9-induced IL-6 in murine splenocytes (CpG1826, ELISA); format: cell-based, C57BL/6 mice; settings: Mus musculus, Splenocyte; read-out: TLR9-ligand induced IL-6 in murine splenocytes IC50
Experimental: 2.2 Determination of TLR9-Induced IL-6 in Murine Splenocytes
(§1) Spleens were dissected from C57BL/6 mice immediately following euthanasia. Excess fat was trimmed from the spleens prior to mashing the spleen through a […] cell strainer using a plunger from a 5 ml syringe. A single cell suspension was prepared and the volume was adjusted to 15 ml in a 50 ml Falcon tube using cold PBS. Cells were centrifuged at 1500 rpm for 5 minutes at 4° C. degrees prior to removal of supernatant and re-suspension in 5 ml of red blood cell lysis buffer per spleen and incubation for 5 minutes at room temperature. Ice cold PBS (30 ml) was added to the cells prior to centrifugation at 1500 rpm for 5 minutes at 4° C. The supernatant was removed and the cells were washed twice with 40 ml of murine splenocyte culture media (MSCM). […] Cells were re-suspended in 10-20 ml of MSCM and counted using a Countess cell counter. […]
After overnight culture, cells were transferred to 96-well V-bottomed plates and centrifuged at 2000 rpm for 5 minutes at room temperature. Subsequently 150 μl of each culture supernatant was transferred to 96-well flat-bottomed plates and […] were measured using commercially available mouse IL-6 sandwich ELISA kit (R&D systems). […] IL-6 levels were measured using a SpectraMax 190 Plate Reader (450 nm) and analyzed using SoftMax Pro and GraphPad Prism software.

[2] = system: TLR9; assay: TLR9-induced IFN-alpha in murine splenocytes (CpG1585, ELISA); format: cell-based, 129/Sv mice; settings: Mus musculus, Splenocyte; read-out: TLR9-ligand induced IFNα in murine splenocytes IC50
Experimental: 2.3 Determination of TLR9-Induced IFN-Alpha in Murine Splenocytes
as §1, with “Excess” for “Spleens were dissected from C57BL/6 mice immediately following euthanasia. Excess”
After overnight culture, cells were transferred to 96-well V-bottomed plates and centrifuged at 2000 rpm for 5 minutes at room temperature. Subsequently 150 μl of each culture supernatant was transferred to 96-well flat-bottomed plates and […] were measured using commercially available mouse IFN-alpha sandwich ELISA kit (PBL Interferon Source). […] IFN-alpha levels were measured within 5 minutes using a SpectraMax 190 Plate Reader (450 nm) and analyzed using SoftMax Pro and GraphPad Prism software.

IC50 [1]: 96 nM
IC50 [2]: > 2220 nM
Compound: CCC(=O)N1CC[C@H](Nc2ncnc3c2CN(c2cnc(OC)c(C(F)(F)F)c2)CC3)C1 [Example 67, 1-{(S)-3-[6-(6-Methoxy-5-trifluoromethyl-pyridin-3-yl)-5,6,7,8-tetrahydro-pyrido[4,3-d]pyrimidin-4-ylamino]-pyrrolidin-1-yl}-propan-1-one]

Source: patent publication US9949979B2, “Use of inhibitors of the activity or function of PI3K” (NOVARTIS AG, priority 2011, dated 2018)
